A short description of series [1]: Thermal stability by thermogravimetric analysis (thermal weight-loss temperature Ti). The format is physicochemical. The settings on record: TGA under nitrogen atmosphere, scan rate 10° C./min. As for the experimental part:
The thermal stability of the OH1 chromophore was investigated using thermogravimetric analysis (TGA) and differential scanning calorimetry (DSC) under nitrogen atmosphere (scan rate: 10° C./min). The melting temperature Tm is defined here as the peak position in the DSC scan. The thermal weight-loss temperature Ti estimated as the temperature at the intercept of the leading edge of the weight loss by the base line of the TGA scans. […] The high thermal stability of OH1 crystals is an advantage for applying a melt-based crystal growth that is difficult for the ionic salts, e.g. DAST that decomposes at the melting temperature.

The conditions of series [2]: comparison crystals from literature [13], [11, 18, 12]; cited from earlier work.
The conditions of series [3]: comparison crystals; cited from earlier work.
The conditions of series [4]: comparison crystals from literature; cited from earlier work.
The nature of series [5]: Solubility of OH1 and comparison crystals in methanol and other organic solvents. The format is physicochemical. How it is done:
OH1 molecules are dissolved very well in acetone and acetonitrile, and relatively good in ethanol and methanol. We selected methanol as the solvent for growing the crystals because the solubility in acetone is too high and the solute yield on decreasing the temperature is the most efficient in methanol.
The solubility of OH1 in methanol as a function of temperature is shown in FIG. 25; the solid curve is according to the Van't Hoff equation with the solution enthalpy ΔH=29±2 kJ/mol and entropy change ΔS=[…].

The nature of a further series: Solubility in water. Type of series: physicochemical.

SMILES strings stand for the structures. Values joined by “and” are separate entries in the source; they are usually repeats but may differ in a detail not shown here. Equal values may be shown once. Read-outs that look alike come from different tables or passages of the source.

Regarding `CC1CC(C=Cc2ccc(O)cc2)=CC(=C(C#N)C#N)C1` (stereo not shown) [OH2, 2-(3-(4-hydroxystyryl)-5-methylcyclohex-2-enylidene)malononitrile], the “thermal weight-loss temperature Ti” value in series [1] was 242/326 °C.
For the compound `CN(C)c1ccc(C=Cc2cc[n+](C)cc2)cc1.Cc1ccc(S(=O)(=O)[O-])cc1` [DAST, 4′-dimethylamino-N-methyl-4-stilbazolium tosylate], in series [2], the “solubility at 40° C. (g/100 g methanol)” value was 3.73 g/100 g methanol. The solubility in water result in series [3] is given as “highly soluble”. For the same compound, the “thermal weight-loss temperature Ti” value in series [4] is 250 °C and 250/250 °C.
On to `CC1(C)CC(/C=C/c2ccc(O)cc2)=CC(=C(C#N)C#N)C1` [OH1, 2-(3-(4-hydroxystyryl)-5,5-dimethylcyclohex-2-enylidene)malononitrile], for which, in series [5] (25° C.), the “Solubility in Acetone” value worked out at 25.9 g/100 g solvent, the “Solubility in Acetonitrile” value is on record as 4.32 g/100 g solvent, the “Solubility in Ethanol” value came out at 2.34 g/100 g solvent and the “Solubility in Methylene chloride” value was 1.4 g/100 g solvent. In series [5] (40° C.), the “Solubility in Acetone” value was 41.8 g/100 g solvent, the “Solubility in Acetonitrile” value came out at 5.3 g/100 g solvent, the “Solubility in Ethanol” value turned out to be 2.5 g/100 g solvent and the “Solubility in Methylene chloride” value worked out at 1.9 g/100 g solvent. Further, the “Solubility in Methanol” value in series [5] (methanol, 25° C.) was 2.15 g/100 g solvent. In addition, in series [5] (methanol, 40° C.), the “solubility at 40° C. (g/100 g methanol)” value is 3.74 g/100 g methanol. In series [5] (methanol, 40° C. (Table 9)), the “Solubility in Methanol” value is recorded as 3.4 g/100 g solvent. Also, the solubility in water entry in the series “Solubility in water” is given as “insoluble”.
In the case of `CN(C)c1ccc(C=CC2=CC(=C(C#N)C#N)CC(C)(C)C2)cc1` [DAT2], the “solubility at 40° C. (g/100 g methanol)” value in series [2] is on record as less than 0.01 g/100 g methanol. Further, in series [3], the solubility in water entry is on record as “insoluble”. Also, the “thermal weight-loss temperature Ti” value in series [4] was 293 °C.

These data come from US20110128610A1, “PHENOLIC CONFIGURATIONALLY LOCKED POLYENE BULK SINGLE CRYSTALS, CRYSTALLINE THIN FILMS AND WAVEGUIDES FOR ELECTRO-OPTICS AND THZ-WAVE APPLICATIONS” (priority 2008, published 2011).
